22 compounds from patent US20240376113A1 (Volastra Therapeutics, Inc., priority 2020, published 2024) can be followed below.

Where two headings read alike, the source gives them in different places.

The target of one experiment is ENPP-1 ECD (Homo sapiens (Human), UniProt P22413). Put plainly: Inhibition of ENPP1 hydrolysis of 2′,3′-cGAMP (Assay 1).
Experiment [1] concerns the target ENPP1 on MDA-MB-231 cells (Homo sapiens (Human), UniProt P22413). Description: Inhibition of ENPP1 hydrolysis of AMP p-nitrophenyl ester on MDA-MB-231 cells (Assay 2). Format: cell-based. As to the method: Inhibition of ENPP1 Hydrolysis of AMP p-Nitrophenyl Ester on MDA-MB-231 Cells (Assay 2)
ENPP1 is normally expressed on the human metastatic breast cancer cell line MDA-MB-231. Hydrolysis of the p-nitrophenyl ester of AMP (pNP-AMP), an isostere of ATP, is selectively catalyzed by ENPP1 in the supernatant of MDA-MB-231 cell cultures. Inhibition of the hydrolysis of pNP-AMP by MDA-MB-231 at pH 7.4 and 37° C. is a good model of physiologically relevant activity of membrane-bound ENPP1 at disease-relevant expression levels.
MDA-MB-231 cells were harvested using TypLE Express Enzyme digestion and suspended in 100 μL of Leibovitz's L-15 Medium, 20% FBS, seeding the cells in a 96-well assay plate with 4.5×10^4 cells/well. Cells were incubated at 37 C with 1% CO2 for 24 h. In a separate dilution plate, 2× of top dose of compound was prepared in phenol-red free 1640 medium without FBS and then 1:3 serial diluted in the same medium. The cell culture medium of L15 medium was aspirated carefully and cells were washed with PBS once, and 50 μL per well of test compound or DMSO blank are added to the assay plate. Substrate mix (50 μL; 0.5 mM pNP-AMP in phenol-red free 1640 media without FBS) was added for a pNP-AMP final concentration of 0.25 mM. The system was incubated at 37° C. for 3 h.

The mark [2] stands for this setting: read-out: Assay 1 KI values (class), 2,3-cGAMP 24 μM, AMP-Glo luminescence, KI from IC50 via Cheng/Prusoff.
[3] abbreviates: read-out: Assay 1 KI, 2,3-cGAMP 24 μM, AMP-Glo luminescence, KI from IC50 via Cheng/Prusoff.
Where [4] appears, read: pNP-AMP 0.25 mM, MDA-MB-231 cells, 37° C. 3 h, KI,app from IC50 via Cheng/Prusoff, read-out: Assay 2 KI, app.
Where [5] appears, read: pNP-AMP 0.25 mM, MDA-MB-231 cells, 37° C. 3 h, KI,app from IC50 via Cheng/Prusoff, read-out: Assay 2 KI,app values (class).
Setting [6] is: Assay 1 KI values (class), 2,3-cGAMP 24 μM, AMP-Glo luminescence, KI from IC50 via Cheng/Prusoff.

ENPP1 on MDA-MB-231 cells, sequence (P22413 whole entry): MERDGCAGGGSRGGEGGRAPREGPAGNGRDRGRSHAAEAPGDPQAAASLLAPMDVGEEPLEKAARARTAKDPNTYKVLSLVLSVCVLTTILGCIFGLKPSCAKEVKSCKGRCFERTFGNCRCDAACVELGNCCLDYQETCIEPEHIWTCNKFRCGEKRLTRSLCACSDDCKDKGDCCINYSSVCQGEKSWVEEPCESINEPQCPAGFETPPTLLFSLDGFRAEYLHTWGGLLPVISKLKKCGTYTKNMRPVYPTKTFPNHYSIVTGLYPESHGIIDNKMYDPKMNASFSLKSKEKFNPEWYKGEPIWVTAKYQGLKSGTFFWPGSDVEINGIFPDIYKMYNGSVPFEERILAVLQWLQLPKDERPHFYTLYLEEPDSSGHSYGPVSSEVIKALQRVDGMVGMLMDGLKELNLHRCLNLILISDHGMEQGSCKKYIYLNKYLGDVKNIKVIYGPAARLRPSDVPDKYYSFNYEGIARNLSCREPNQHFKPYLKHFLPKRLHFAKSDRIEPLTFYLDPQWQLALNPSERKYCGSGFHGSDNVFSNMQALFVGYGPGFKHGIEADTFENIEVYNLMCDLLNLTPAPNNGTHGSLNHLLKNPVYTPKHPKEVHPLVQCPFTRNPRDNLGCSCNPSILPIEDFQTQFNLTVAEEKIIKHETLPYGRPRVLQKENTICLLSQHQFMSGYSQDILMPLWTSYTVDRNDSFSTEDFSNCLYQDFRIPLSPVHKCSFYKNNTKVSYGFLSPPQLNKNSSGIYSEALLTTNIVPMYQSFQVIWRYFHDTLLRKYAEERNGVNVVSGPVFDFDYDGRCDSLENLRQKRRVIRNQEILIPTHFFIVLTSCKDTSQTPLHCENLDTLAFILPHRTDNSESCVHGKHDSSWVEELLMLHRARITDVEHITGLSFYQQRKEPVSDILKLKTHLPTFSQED
ENPP-1 ECD, sequence (P22413 98-925): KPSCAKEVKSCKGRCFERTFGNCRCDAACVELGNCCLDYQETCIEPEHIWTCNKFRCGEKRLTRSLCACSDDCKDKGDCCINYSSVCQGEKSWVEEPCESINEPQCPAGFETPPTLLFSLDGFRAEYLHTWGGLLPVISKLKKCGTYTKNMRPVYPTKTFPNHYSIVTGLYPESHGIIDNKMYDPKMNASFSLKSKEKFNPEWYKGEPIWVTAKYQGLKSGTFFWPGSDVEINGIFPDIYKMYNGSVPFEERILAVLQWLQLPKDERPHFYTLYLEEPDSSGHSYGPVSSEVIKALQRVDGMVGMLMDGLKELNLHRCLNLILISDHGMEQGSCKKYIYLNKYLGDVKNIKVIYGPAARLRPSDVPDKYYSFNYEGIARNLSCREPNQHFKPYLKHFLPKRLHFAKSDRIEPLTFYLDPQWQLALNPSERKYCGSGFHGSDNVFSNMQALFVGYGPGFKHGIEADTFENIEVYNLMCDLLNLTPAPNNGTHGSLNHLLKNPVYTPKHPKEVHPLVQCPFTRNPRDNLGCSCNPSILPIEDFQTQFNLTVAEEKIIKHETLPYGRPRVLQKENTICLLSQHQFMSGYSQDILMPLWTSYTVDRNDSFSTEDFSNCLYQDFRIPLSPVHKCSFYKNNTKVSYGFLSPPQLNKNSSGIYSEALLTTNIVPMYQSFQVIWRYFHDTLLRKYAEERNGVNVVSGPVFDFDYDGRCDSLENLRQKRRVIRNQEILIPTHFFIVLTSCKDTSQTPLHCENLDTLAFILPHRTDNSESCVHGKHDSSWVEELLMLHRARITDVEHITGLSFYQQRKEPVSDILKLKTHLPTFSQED
Method for ENPP-1 ECD: Test compounds were plated in a 3× dilution scheme in a 384 well plate.

Regarding `Cc1nc2ncnn2c(N(C)C)c1Cc1cccc(N)c1`, the results for the Ki (on ENPP-1 ECD; in experiment [1]) were 110 nM and 1400 nM, respectively.
`Cc1nc2ncnn2c(N(C)C)c1Cc1ccc([S@@](C)(=N)=O)cc1` (single isomer, unassigned) [Compound 1b]: the Ki is below 3 nM on ENPP-1 ECD (setting [2]), 0.015 nM on ENPP-1 ECD (setting [3]), 1.67 nM in experiment [1] (setting [4]) and below 10 nM in experiment [1] (setting [5]).
Taken in the same sequence, the figures for `Cc1nc2ncnn2c(N2CCCC2)c1Cc1ccc([S@](C)(=N)=O)cc1` (single isomer, unassigned) [Compound 8a] were below 3 nM, 0.054 nM, 9.73 nM and below 10 nM.
The matching figures for `Cc1cc2ncnn2c(N(C)C)c1Cc1ccc([S@](C)(=N)=O)cc1` (single isomer, unassigned) [Compound 28a]: below 3 nM, 0.00806 nM, 0.56 nM and below 10 nM.
Take `Cc1nc2ncnn2c(N(C)C)c1Cc1ccc([S@@](C)(=N)=O)cc1` (single isomer, unassigned) [Compound 49a]: the Ki on ENPP-1 ECD (setting [2]) was below 3 nM; at ENPP-1 ECD (setting [3]) it was 0.0236 nM; in experiment [1] (setting [4]), 1.59 nM; in experiment [1] (setting [5]) it was below 10 nM.
Take `Cc1c(Cc2ccc([S@@](C)(=N)=O)cc2)c(N(C)C)n2ncnc2c1C#N` (single isomer, unassigned) [Compound 85a]: the Ki at ENPP-1 ECD (setting [3]) is 0.00604 nM; in experiment [1] (setting [4]) it was 0.298 nM.
Consider `Cc1nc2ncnn2c(N(C)C)c1Cc1ccc(S(C)(=N)=O)cc1` (stereo not shown) [Compound 1, (4-((7-(dimethylamino)-5-methyl-[1,2,4]triazolo[1,5-a]pyrimidin-6-yl)methyl)phenyl)(imino)(methyl)-λ^6-sulfanone], for which the Ki was below 3 nM on ENPP-1 ECD (setting [6]), 0.109 nM at ENPP-1 ECD (setting [3]), 7.47 nM in experiment [1] (setting [4]) and below 10 nM in experiment [1] (setting [5]).
On to `Cc1nc2ncnn2c(N(C)C)c1Cc1ccc(S(N)(=O)=O)cc1` [Compound 2, 4-((7-(dimethylamino)-5-methyl-[1,2,4]triazolo[1,5-a]pyrimidin-6-yl)methyl)benzenesulfonamide], for which the Ki was below 3 nM on ENPP-1 ECD (setting [6]), 0.158 nM at ENPP-1 ECD (setting [3]), 14.4 nM in experiment [1] (setting [4]) and above 10 nM in experiment [1] (setting [5]).
`Cc1nc2ncnn2c(N(C)C)c1Cc1ccc(P(=O)(O)O)cc1` [Compound 5, (4-{[7-(dimethylamino)-5-methyl-[1,2,4]triazolo[1,5-a]pyrimidin-6-yl]methyl}phenyl)phosphonic acid]: the Ki on ENPP-1 ECD (setting [6]) was below 3 nM; at ENPP-1 ECD (setting [3]), 0.851 nM; in experiment [1] (setting [4]), 7.94 nM; in experiment [1] (setting [5]), below 10 nM.
The matching figures for `Cc1nc2ncnn2c(N2CCCC2)c1Cc1ccc(S(C)(=N)=O)cc1` (stereo not shown) [Compound 8, imino(methyl)(4-((5-methyl-7-(pyrrolidin-1-yl)-[1,2,4]triazolo[1,5-a]pyrimidin-6-yl)methyl)phenyl)-λ^6-sulfanone]: below 3 nM, 0.0718 nM, 7.79 nM and below 10 nM.
On to `Cc1nc2ncnn2c(N2CCCC2)c1Cc1ccc(S(N)(=O)=O)cc1` [Compound 9, 4-((5-methyl-7-(pyrrolidin-1-yl)-[1,2,4]triazolo[1,5-a]pyrimidin-6-yl)methyl)benzenesulfonamide], for which the Ki at ENPP-1 ECD (setting [6]) was below 3 nM; on ENPP-1 ECD (setting [3]), 0.569 nM; in experiment [1] (setting [4]), 32.4 nM; in experiment [1] (setting [5]) it was above 10 nM.
Regarding `Cc1nc2ncnn2c(N2CCC2)c1Cc1ccc(S(C)(=N)=O)cc1` (stereo not shown) [Compound 10, (4-((7-(azetidin-1-yl)-5-methyl-[1,2,4]triazolo[1,5-a]pyrimidin-6-yl)methyl)phenyl)(imino)(methyl)-λ^6-sulfanone], the Ki at ENPP-1 ECD (setting [6]) is 3 to 300 nM; at ENPP-1 ECD (setting [3]) it was 3.12 nM; in experiment [1] (setting [4]), 224 nM; in experiment [1] (setting [5]), above 10 nM.
The matching figures for `CCN(C)c1c(Cc2ccc(S(C)(=N)=O)cc2)c(C)nc2ncnn12` (stereo not shown) [Compound 12, (4-((7-(ethyl(methyl)amino)-5-methyl-[1,2,4]triazolo[1,5-a]pyrimidin-6-yl)methyl)phenyl)(imino)(methyl)-λ^6-sulfanone]: below 3 nM, 0.479 nM, 48.9 nM and above 10 nM.
The matching figures for `Cc1nc2ncnn2c(N2CCCCC2)c1Cc1ccc(S(C)(=N)=O)cc1` (stereo not shown) [Compound 16, imino(methyl)(4-((5-methyl-7-(piperidin-1-yl)-[1,2,4]triazolo[1,5-a]pyrimidin-6-yl)methyl)phenyl)-λ^6-sulfanone]: below 3 nM, 0.0814 nM, 14.9 nM and above 10 nM.
As for `Cc1nc2ncnn2c(N2CCCCC2)c1Cc1ccc([S@](C)(=N)=O)cc1` [Compound 16a], the Ki on ENPP-1 ECD (setting [2]) is below 3 nM; at ENPP-1 ECD (setting [3]) it was 0.0627 nM; in experiment [1] (setting [4]), 11.9 nM; in experiment [1] (setting [5]), above 10 nM.
As to `Cc1cc2ncnn2c(N(C)C)c1Cc1ccc(S(C)(=N)=O)cc1` (stereo not shown) [Compound 28, (4-{[5-(dimethylamino)-7-methyl-[1,2,4]triazolo[1,5-a]pyridin-6-yl]methyl}phenyl)(imino)methyl-λ^6-sulfanone], the Ki on ENPP-1 ECD (setting [6]) was below 3 nM; on ENPP-1 ECD (setting [3]), below 0.027 nM; in experiment [1] (setting [4]) it was 1.06 nM; in experiment [1] (setting [5]), below 10 nM.
The matching figures for `Cc1nc2nccn2c(N(C)C)c1Cc1ccc(S(C)(=N)=O)cc1` (stereo not shown) [Compound 29, (4-{[5-(dimethylamino)-7-methylimidazo[1,2-a]pyrimidin-6-yl]methyl}phenyl)(imino)methyl-λ^6-sulfanone]: below 3 nM, 0.252 nM, 12.2 nM and above 10 nM.
On to `Cc1nc2nccn2c(N(C)C)c1Cc1ccc([S@](C)(=N)=O)cc1` [Compound 29a], for which the Ki on ENPP-1 ECD (setting [2]) was below 3 nM; on ENPP-1 ECD (setting [3]), 0.106 nM; in experiment [1] (setting [4]), 3.15 nM; in experiment [1] (setting [5]), below 10 nM.
`Cc1nc2ncnn2c(N2CCCC2)c1Cc1ccc(P(=O)(O)O)cc1` [Compound 36, (4-{[5-methyl-7-(pyrrolidin-1-yl)-[1,2,4]triazolo[1,5-a]pyrimidin-6-yl]methyl}phenyl)phosphonic acid]: the Ki on ENPP-1 ECD (setting [6]) was below 3 nM; at ENPP-1 ECD (setting [3]), 0.512 nM; in experiment [1] (setting [4]), 5.68 nM; in experiment [1] (setting [5]), below 10 nM.
On to `Cc1nc2ncnn2c(N(C)C)c1-c1ccc2c(c1)CCN(S(N)(=O)=O)C2` [Compound 84, 6-[7-(dimethylamino)-5-methyl-[1,2,4]triazolo[1,5-a]pyrimidin-6-yl]-1,2,3,4-tetrahydroisoquinoline-2-sulfonamide], for which the results for the Ki on ENPP-1 ECD (setting [6]) and at ENPP-1 ECD (setting [3]) were above 300 nM and 672 nM, respectively.
Take `Cc1c(Cc2ccc(S(C)(=N)=O)cc2)c(N(C)C)nc2ncnn12` (stereo not shown) [Compound 86, (4-{[5-(dimethylamino)-7-methyl-[1,2,4]triazolo[1,5-a]pyrimidin-6-yl]methyl}phenyl)(imino)methyl-λ^6-sulfanone]: the Ki in experiment [1] (setting [4]) worked out at 8.29 nM.
Take `COc1nc2ncnn2c(N(C)C)c1Cc1ccc([S@](C)(=N)=O)cc1` [Compound 88b]: the Ki at ENPP-1 ECD (setting [3]) was above 15 nM.
